These results are taken from patent publication US8304601B2, “Mouse model for eye disease” (priority 2007, dated 2012).

What all share (assay type): in vivo
Test [1] deals with Vav2/3^ko mouse. As to the kind of experiment: Intraocular pressure after Y-27632 eye drop, Test Example 3. Particulars: 7-week old Vav2/3^ko; 3 μL of 1 mM/PBS solution to eye; one hour after administration. The protocol:
(§1) For No. 20 of each of the 7-week old Vav2/3^ko, Vav2^ko and Vav3^ko, intraocular pressure was measured between 10 o'clock in the morning and noon by using a Tonometer and then 3 μL of 1 mM/PBS solution of Y-27632 (Calbiochem), which is an inhibitor for Rho-associated protein kinase and has been reported to have an activity of reducing intraocular pressure by acting on an outflow tract for aqueous humor, or 3 μL of PBS solution was applied to an eye. One hour after the administration, the intraocular pressure was measured again.

The next test relates to Vav3^ko mouse. Described as above. Conditions: 7-week old Vav3^ko; 3 μL of 1 mM/PBS solution to eye; one hour after administration. How it is done:
as §1

Test [2] concerns Vav2^ko mouse. The test is described as above. Particulars: 7-week old Vav2^ko; 3 μL of 1 mM/PBS solution to eye; one hour after administration. The protocol: as §1
The test system of test [3] is Vav2/3^ko mouse. The test is described as follows: Intraocular pressure after eye-drop administration, Example 5. Conditions: for Ratio of effect on intraocular pressure: Vav2/3^ko. How it is done:
(§2) For the No. 20 animal of each of the 7-week old Vav2/3^ko and Vav2^ko, intraocular pressure was measured between 10 o'clock in the morning and noon by using a Tonometer. Then, 3 μL solution containing 0.02% benzalkonium chloride, 0.5% NaH2PO4, 0.6% Na2HPO4, 0.4% sodium chloride and 0.005% Latanoprost (manufactured by Cayman Chemical), or solution having the same composition except that no latanoplast was contained was applied to an eye of the animal based on a blind testing method. Three hours later, the intraocular pressure was measured again. In addition, to Vav2/3^ko, 3 μL eye-drop solution containing timolol maleate (Trade name; Timoptol, Merck Company, USA, 0.5% solution), or 3 μL eye-drop solution containing dorzolamide hydrochloride (Trade name; Trusopt, Merck Company, USA, 1% solution), both having a different mechanism for reducing intraocular pressure compared to latanoprost, was applied instead of the solution containing latanoprost as described above. Two hours after the application, change in the intraocular pressure was measured.

Test [4] has as its system Vav2/3^ko mouse. The test is described as follows: Intraocular pressure after latanoprost eye drop, Example 4. Particulars: 8- to 9-week old Vav2/3^ko mouse; 3 μL 0.01%/PBS applied; three hours later; vs PBS control. How it is done: For the 8- to 9-week old Vav2/3^ko mouse (No. 12), intraocular pressure was measured between 10 o'clock in the morning and noon by using a Tonometer. Then, 3 μL of latanoplast (0.01%/PBS, manufactured by Cayman Chemical) of a prostaglandin derivative as a therapeutic agent for glaucoma was applied and the intraocular pressure was measured again three hours later. As a control, a group administered only with PBS was prepared at the same time, and analysis was carried out based on Student's t-test (P<0.05). […] Therefore, it was confirmed that the mouse of the present invention is a useful model for evaluation of a therapeutic agent for glaucoma.

Test [5] deals with Vav2^ko mouse. The test is described as follows: Intraocular pressure after eye-drop administration, Example 5. Particulars: 7-week old Vav2^ko. The protocol: as §2
The mark [6] stands for this setting: 3 μL eye-drop solution (timolol maleate 0.5%, dorzolamide hydrochloride 1%), two hours after application.

Counter-ions that a name gives are not always drawn.

For the compound `C[C@@H](N)[C@H]1CC[C@H](C(=O)Nc2ccncc2)CC1` [Y-27632], the “activity of reducing the intraocular pressure” value in the test with Vav2/3^ko mouse [1], in the test with Vav3^ko mouse and with Vav2^ko mouse [2] was “did not show any activity of reducing the intraocular pressure” each time.

As to `CCN[C@H]1C[C@H](C)S(=O)(=O)c2sc(S(N)(=O)=O)cc21` [dorzolamide hydrochloride], the “Ratio of effect on intraocular pressure” value in the test with Vav2/3^ko mouse [3] (setting [6]) is given as 20%.

`CC(C)OC(=O)CCC/C=C\C[C@@H]1[C@@H](CC[C@@H](O)CCc2ccccc2)[C@H](O)C[C@@H]1O` [latanoprost]: the intraocular pressure change entry in the test on Vav2/3^ko mouse [4] was “reduced”. For the same compound, the “intraocular pressure three hours after administration” value in the test on Vav2/3^ko mouse [3] (7-week old Vav2/3^ko, 3 μL 0.005% solution to eye, three hours later, P<0.01) came to 15.8±5.1 mmHg; in the test on Vav2^ko mouse [5] (3 μL 0.005% solution to eye, three hours later, P<0.01), 14.5 mmHg. Further, the “intraocular pressure twenty four hours after eye drop administration” value in the test on Vav2/3^ko mouse [3] (7-week old Vav2/3^ko, 3 μL 0.005% solution, twenty four hours after) is recorded as “came back to the high value which is the same as the one before the eye drop administration”. The “intraocular pressure before administration” value in the test with Vav2/3^ko mouse [3] (7-week old Vav2/3^ko, before eye drop of 3 μL 0.005% solution) was determined as 26.3±5.0 mmHg; in the test with Vav2^ko mouse [5] (before eye drop of 3 μL 0.005% solution), 17.4 mmHg. In the test on Vav2/3^ko mouse [3] (3 μL 0.005% latanoprost solution, three hours later), the “Ratio of effect on intraocular pressure” value is given as “about 40%”.

On to `CC(C)(C)NC[C@H](O)COc1nsnc1N1CCOCC1` [timolol maleate], for which the “Ratio of effect on intraocular pressure” value in the test with Vav2/3^ko mouse [3] (setting [6]) is 15%.
